Assay results: the METLIN SMRT retention time set (Domingo-Almenara et al. 2019)

Assay: gradient 5% acetonitrile 3 min, to 50% in 2 min, to 85% in 15 min, held 3 min, 100 µL/min
Details: column: Zorbax Extend-C18 2.1 x 50 mm; eluents: water / acetonitrile, 0.1% formic acid
Outline: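 Standards, all pure, were combined into mixtures of ~100 molecules and run at 100 μL/min on a Zorbax Extend-C18 column (2.1 × 50 mm, 1.8 μm) with water and acetonitrile, each containing 0.1% formic acid. A coupled quadrupole time-of-flight mass spectrometer operated in positive and negative ionization mode. Retention time values come from computationally picked adduct peaks, each inspected manually.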

RP-LC retention time [s] | SMILES
928 | Cc1ccccc1CNC(=O)c1sc(-c2cn(C)c3ncccc23)nc1C
572 | C#CCCNC(=O)c1cccn(C)c1=O
604 | Cc1nc(-c2ccccn2)cc2nn(CC(=O)NCC3CCCO3)c(=O)n12 (stereo unspecified)
858 | Cc1nc(-c2cn(-c3cccc(Cl)c3)nn2)no1
685 | Cn1c(C2CCN(C(=O)Nc3cccc(Cl)c3F)CC2)cc(=O)n2nccc12
922 | COc1ccc(OC)c(NC(=O)N2CCC3(CC2)N=C(c2ccc(Cl)cc2)C(=O)N3)c1
624 | CC1Cn2cc(C(=O)NCCCN3CCOCC3)c(=O)c3c(Cl)ccc(c32)O1 (stereo unspecified)
931 | Cn1cccc1-c1noc(C2CCN(C(=O)C3(c4ccccc4)CC3)C2)n1 (stereo unspecified)
577 | CC(C)Oc1ccc(CN2CCC3(CC2)CN(C)CC3c2nnc(C(C)C)o2)cc1 (stereo unspecified)
777 | COc1cccc(CNC(=O)c2ccc3c(c2)nc2n3CCN(Cc3ccccc3)C2=O)c1
776 | CC(=O)N1c2ccc(S(=O)(=O)N3CCOCC3)cc2CC1C(=O)N1CCN(c2ccccc2)CC1 (stereo unspecified)
659 | O=C(CCC(=O)N1CCN(c2ccc(=O)n(-c3ccc(Cl)cc3)n2)CC1)N1CCOCC1
1010 | Cc1ccc(-c2nc(Cn3nnc(C(=O)NCc4ccc(C)o4)c3C)c(C)o2)cc1
1260 | CC1CCCN(S(=O)(=O)c2ccc(C(=O)Nc3nc4c(s3)CCc3ccccc3-4)cc2)C1 (stereo unspecified)
590 | CN(C)c1ccc2c(c1)CN(C(=O)C1CCC1)CCO2
775 | O=C(Nc1ccc(F)cc1)C1CC(=O)N(c2ccc3c(c2)CCN3C(=O)C2CC2)C1 (stereo unspecified)
1080 | COc1cccc(-n2c(=O)c3sccc3n(Cc3nc(-c4ccc(OC(C)C)cc4)no3)c2=O)c1
1070 | Cc1ccc(-n2cc3c(c(C(=O)Nc4ccc5c(c4)OCCO5)c2=O)CC(C)(C)CC3=O)cc1
609 | O=C(Cc1nnc2c(-c3nc(C4CC4)no3)cccn12)N1CCOCC1
792 | O=C(Nc1ccc2c(c1)CCCN2C(=O)c1ccco1)c1ccccc1C(F)(F)F
645 | Cc1ccc2c(Nc3ccc4c(c3)OCCO4)c(C(=O)N3CCCC(C)C3)cnc2n1 (stereo unspecified)
651 | CCCN1CCN(c2cc(C(=O)O)c3cc(NS(=O)(=O)c4ccc(F)c(F)c4)ccc3n2)CC1

RP-LC retention time [s] | SMILES
779 | CC1Cc2ccccc2N1C(=O)C1CCN(S(=O)(=O)c2cn(C(C)C)cn2)CC1 (stereo unspecified)
590 | COc1ccc(-c2[nH]ncc2CN2C[C@@H]3CCN(S(C)(=O)=O)C[C@]3(CF)C2)cc1
849 | Cc1cc(N2CCC(NC(=O)Nc3ccc(F)cc3)C2=O)ccc1F (stereo unspecified)
693 | O=C(c1cn2ccnc(-c3ccc(F)cc3)c2n1)N1CCN(C(=O)c2ccco2)CC1
711 | O=C(NCc1cccnc1)C1CCCN(C(=O)c2cc3ccsc3n2Cc2cccc(Cl)c2)C1 (stereo unspecified)
753 | COc1ccc(NC(=O)Cn2c(=O)n(-c3ccc(F)cc3)c3ncccc32)cc1OC
596 | CNC(=O)C1CN(S(=O)(=O)c2ccc(C)cc2)CC12CCCC2 (stereo unspecified)
668 | CC(C)NC(=O)c1ccc(CN2CCN(Cc3ccc(F)cc3)C(=O)C2=O)cc1
1130 | O=C1C2N=NN(Cc3nc(-c4cccc(Cl)c4)no3)C2C(=O)N1c1ccc2c(c1)CCC2 (stereo unspecified)
822 | CC(C)NC(=O)c1ccc(OCC2CCN(C(=O)Cc3cccs3)CC2)cc1
624 | CC1CN(Cc2nc3c(c(=O)n(C)c(=O)n3C)n2CC(=O)c2ccccc2)CC(C)O1 (stereo unspecified)
748 | CCCCNC(=O)C1CCN(C(=O)CCc2c(C)[nH]c(C(=O)OCC)c2C)CC1
915 | CN1CCCc2cc(C(=O)NCc3cccc(F)c3)sc21
960 | COc1ccc(NC(=O)C2CCN(S(=O)(=O)c3cc(-c4noc(C5CC5)n4)cs3)CC2)cc1
997 | Cc1cccc(NS(=O)(=O)c2ccc(-c3c(C)noc3C)cc2)c1C
599 | COc1ccc(Nc2ncc(C(=O)O)c3ccccc23)cc1
835 | Cc1cc(C(=O)NCCc2ccc(Cl)cc2)c2c(=O)n(C)c(=O)n(C)c2n1
1270 | Cc1nc2c(sc3nc(-c4ccccc4)ccc32)c(=O)n1CC(=O)Nc1cc(F)cc(F)c1
706 | CCN1CCC(N(Cc2ccc3c(c2)OCO3)C(=O)Nc2cc(C)ccc2OC)CC1
608 | Cc1ccccc1CNC(=O)C1CCN(CCc2cn(C)c3ncccc23)CC1
552 | O=C(CN1CCN(Cc2ccc(F)cc2)C1=O)NCCc1ccccn1
1270 | Cc1sc(-c2cc(C(F)(F)F)on2)cc1S(=O)(=O)N1CCc2ccccc21

RP-LC retention time [s] | SMILES
856 | O=C(NC1CCCC1)C1c2ccccc2CC(=O)N1Cc1ccccc1 (stereo unspecified)
754 | O=C(CCn1cnc2c(cnn2-c2ccccc2)c1=O)Nc1ccc2c(c1)OCCO2
700 | CCCC(NC(=O)Cc1cccc(OC)c1)C(=O)Nc1nc2ccccc2[nH]1 (stereo unspecified)
1210 | COc1ccc(CCc2nc(-c3ccc4oc(C)nc4c3)no2)cc1
648 | CCc1nnc2nc(N3CCN(C(=O)COc4ccc(Cl)cc4)CC3)cc(C)n12
578 | CCN(CC)c1ccc(NC(=O)C2CCCN(S(=O)(=O)c3cn(CC)cn3)C2)c(C)c1 (stereo unspecified)
613 | CN(C)C(=O)c1cn(C2CN(C(=O)c3cccc(C#N)c3)C2)nn1
680 | CCCN1C(=O)C(CC(=O)NC(C)C)Sc2ncccc21 (stereo unspecified)
718 | Cc1ccc(C(O)CN2CCN(c3ccccc3C)CC2)cc1 (stereo unspecified)
664 | CCN(CC)CCNc1ncnc2onc(-c3ccc(Cl)cc3)c12
1050 | COc1cccc(-c2noc(Cn3c(=O)n(-c4ccc(Cl)cc4)c(=O)c4sccc43)n2)c1
765 | CN1C(=O)Cc2cc(C(=O)N3CCN(c4ccccc4F)CC3)ccc21
742 | CCN1CCN(c2ccc(NC(=O)c3ccc(F)cc3Cl)cn2)C1=O
666 | CN(C)CCC1c2ccc(Cl)cc2CCc2cccnc21 (stereo unspecified)
738 | O=C(Cn1ccn2nc(-c3ccccc3)c(CO)c2c1=O)NCc1ccc2c(c1)OCO2
706 | CCn1ccc2c(cc(C(=O)Nc3ccc(OC)cc3)n2C)c1=O
755 | CCCC(=O)NCc1nc(-c2ccccc2Cl)no1
744 | CCC(=O)N1CCc2cc(C(=O)NC3CCCC3)ccc21
675 | Cc1oc(-c2ccc(C(=O)N3CCN(C)CC3)cc2)nc1CN1CCc2ccccc21
740 | CCOC(=O)c1c(S(=O)(=O)N2CCC(C(=O)NCc3ccco3)CC2)c(C)n(C)c1C
1060 | O=C(Nc1cccc(Br)c1)C(=O)c1c[nH]c2ccccc12
798 | COc1ccc(C(=O)Nc2cc(OC)nc(OC)n2)cc1

RP-LC retention time [s] | SMILES
608 | CC1(C)CS(=O)(=O)N(c2ccc(C(=O)N3CCN(c4ccccn4)CC3)cc2)C1=O
1020 | COc1ccccc1-c1nc(-c2cccc(-c3ccnn3C)c2)no1
713 | Cc1ccc2c(=O)c(C(=O)N3CCOCC3)cn(CC(=O)NCCC3=CCCCC3)c2n1
999 | CCc1ccccc1S(=O)(=O)N1CCC(C(=O)NCc2csc(-c3ccccc3)n2)CC1
1190 | O=C(C1COc2ccccc2O1)N1CCc2cc(-c3csc(C4CC4)n3)ccc21 (stereo unspecified)
850 | COc1cccc(Oc2nccn3c(=O)n(CC(=O)Nc4ccccc4C(F)(F)F)nc23)c1
717 | CCCNC(=O)c1ncn2c1C(=O)N(C1CC1)C(C)(C(=O)NCc1cccc(C)c1)C2 (stereo unspecified)
601 | Cc1cc(C)n(-c2ccnc(N3CCC(C(=O)NCCN4CCCCC4)CC3)n2)n1
1050 | Cc1cccc(-c2noc(C3CCCN3C(=O)Nc3cccc(F)c3)n2)c1 (stereo unspecified)
1050 | COc1cc(C2C(C(=O)N3CCCCC3)=C(C)NC3=C2C(=O)CC(C)(C)C3)cc(OC)c1O (stereo unspecified)
936 | CCOC(=O)c1cccc(NC(=O)c2cc(C)nn2-c2ccccc2)c1
803 | O=C(NCc1cccs1)C1CCN(S(=O)(=O)c2cc(C(=O)N3CCOCC3)cs2)CC1
600 | CC(NC(=O)C(=O)N1CCOCC1)C(c1cccs1)N1CCN(Cc2ccccc2)CC1 (stereo unspecified)
971 | COc1ccccc1NC(=O)Cn1c(=O)n(-c2ccccc2)c(=O)c2c1cc(C)n2C
926 | O=C(NCCCc1ccccc1)C1CCCN(c2ccc(=O)n(-c3cccc(Cl)c3)n2)C1 (stereo unspecified)
684 | COC(=O)c1ccc2c(=O)n(-c3ccccc3)c(N3CCN(c4ccccn4)CC3)nc2c1
968 | CCN1C(=O)COc2ccc(-c3csc(NC(=O)c4ccccc4F)n3)cc21
891 | COc1ccc(NC(=O)c2cn(-c3cc(N4CCCC4)ncn3)cn2)c(OC)c1
1010 | Cc1ccc(C)c(CNC(=O)CCc2conc2-c2ccc(F)cc2)c1
659 | CN(Cc1nc2cc(C(=O)N3CCCC3)ccc2n1C)C(=O)Nc1ccc(Br)cc1F
